This is an account of results in article PMC12116657, “A “proto” type galectin expressed in striped bass (Morone saxatilis) tissues is released to epidermal mucus and binds to bacterial and mucus glycans” (Frontiers in Cellular and Infection Microbiology, 2025).

The subject of one test is Msgal1-L1. Kind of test: Solid-phase binding-inhibition assay: rMsgal1-L1-HRP binding to asialofetuin (ASF) inhibited by carbohydrates. The arrangement: species or system Morone saxatilis. The following applies: I50 normalized to Galβ1,4Glc (lactose) = 1.0, rMsgal1-L1-HRP binding to ASF, pH 8.0, 23°C, 10 mM ME. How it is done: Binding of the rMsgal1-L1–HRP to asialofetuin (ASF) and its inhibition by carbohydrates were assessed and optimized as reported elsewhere ([Ahmed et al., 1996], [2002]). […] Thus, the inhibition of galectin binding to immobilized ASF by mono- and oligosaccharides is a standard system to analyze the fine specificity of novel galectins. Briefly, ASF (0.5 μg/100 μl/well) in 0.1 M Na2CO3/0.02% NaN3 (pH 9.6) was adsorbed onto the plastic wells (37°C, 3 h) and the bound glycoprotein was fixed with 2% formaldehyde (37°C, 30 min). The plates were washed three times with PBS (azide-free)/0.05% Tween 20, and incubated with the Msgal1-L1–HRP conjugate (10 ng/100 μl/well for binding assays) or with a pre-incubated mixture of equal volume of conjugate and varying concentrations of test ligands (for binding-inhibition assays). After incubation (4°C, 1 h) the plates were washed with ice-cold azide-free PBS-Tween 20 buffer and the bound peroxidase activity was assayed with 2,2’-azino-bis(3-ethylbenzothiazoline-6-sulfonic acid) (ABTS) as previously described ([Ahmed et al., 1996]).
The carbohydrate-binding specificity of Msgal1-L1 was determined by analyzing the binding of the rMsgal1-L1–HRP conjugate to ASF in the presence of several saccharides in a solid-phase assay under the optimal conditions of pH and temperature established above (pH 8.0; 23°C) and under a reducing environment (10 mM ME) ([Ahmed et al., 1996], [2002]). For each test saccharide, a complete inhibition curve was obtained, and the molar concentrations that inhibited the binding of the lectin conjugate to ASF by 50% (I 50) were calculated and normalized with respect to Galβ1,4Glc (lactose), which was included in each plate as a standard ( Table 2 ). The binding-inhibition profile for Msgal1-L1 was generally similar to those for proto type galectins from zebrafish (D. rerio), toad (B. arenarum), and domestic cow (Bos taurus). […] The presence of a fucose unit linked in α1,2 to the non-reducing Gal moiety decreased the inhibitory effectiveness in about one-third as compared to lactose, most likely by steric hindrance of the protein–Gal interaction. […] A hydrophobic phenyl group linked to the reducing end of Galβ1,3GlcNAc strengthened the Msgal1-L1 interaction with the ligand 6.5-fold.

For test [1], the system named is striped bass epidermal mucus. Briefly: Dot blot binding to untreated and glycosidase-treated epidermal mucus fractions. The settings on record: pre-incubation of rMsgal1-L1 with lactose 200 mM; inhibition not complete. Further details: species or system Morone saxatilis. As to the method: The crude epidermal mucus was cleared of particulate matter and fractionated by centrifugation at 17,000 rpm for 45 min at 4°C, resulting in three distinct layers: a clear upper layer of lower viscosity, an opaque more viscous layer immediately below that likely contain the highest concentration of mucins, and a loose pellet of solid cellular debris. Fractions obtained from multiple centrifugations were separated and corresponding layers were pooled as “clear upper layer pool” and “viscous intermediate layer pool.”
Pooled mucus layers were treated with N-glycosidase F [peptide-N ^4-(acetyl-β-glucosaminyl) asparagine amidase], O-glycosidase (O-glycopeptide endo-D-galactosyl-N-acetyl-α-galactosamino hydrolase, Roche), endoglycosidase H, or all three enzymes combined. […]
Aliquots (100 μL/well) of untreated or glycosidase-treated epidermal mucus pooled layers were dot-blotted onto PVDF membranes using a Bio-Dot Microfiltration Apparatus (Bio-Rad) under vacuum in replicate wells. […] For detection of endogenous ligands for Msgal1-L1, the membranes were blocked in 5% BSA/PBS, probing with rMsgal1-L1–HRP with or without lactose (200 mM), and detected with Stable-DAB (Invitrogen).

Test [2] has as its system proto type galectin from zebrafish (Danio rerio). The settings on record: relative to Galβ1,4Glc = 1.0; comparison values, reference not given; cited from earlier work.
In test [3] the test system is proto type galectin from toad (Bufo arenarum). The settings on record: relative to Galβ1,4Glc = 1.0; comparison values, reference not given; cited from earlier work.
The test system of test [4] is proto type galectin from domestic cow (Bos taurus). The following applies: relative to Galβ1,4Glc = 1.0; comparison values, reference not given; cited from earlier work.

For the compound `OC[C@H]1O[C@@H](O[C@H]2[C@H](O)[C@@H](O)[C@H](O)O[C@@H]2CO)[C@H](O)[C@@H](O)[C@H]1O` [Galβ1,4Glc, lactose], the “Relative inhibitory activity, Morone saxatilis” value in the test with Msgal1-L1 was determined as 1.0. Also, in test [1], the “Inhibition of Msgal1-L1 binding to mucus layers” value was “substantially reduced”. Moreover, in test [2], the “Relative inhibitory activity, Danio rerio” value is 1.0. Further, the “Relative inhibitory activity, Bufo arenarum” value in test [3] is given as 1.0. Further, the “Relative inhibitory activity, Bos taurus” value in test [4] is on record as 1.0.
With `O=C[C@H](O)[C@@H](O)[C@@H](O)[C@H](O)CO` [Gal, D-galactose], the “Relative inhibitory activity, Morone saxatilis” value with Msgal1-L1 is given as 0.007. For the same compound, the “Relative inhibitory activity, Danio rerio” value in test [2] is 0.004. The “Relative inhibitory activity, Bufo arenarum” value in test [3] is 0.005. Further, in test [4], the “Relative inhibitory activity, Bos taurus” value is recorded as 0.0079.
On to `OC[C@H]1O[C@@H](S[C@@H]2O[C@H](CO)[C@H](O)[C@H](O)[C@H]2O)[C@H](O)[C@@H](O)[C@H]1O` [Galβ1S1βGal, Thiodigalactoside], for which the results for the “Relative inhibitory activity, Morone saxatilis” value with Msgal1-L1 and in the test with Msgal1-L1 (listed as Thiodigalactoside) were 10.0 and “approximately 10”, respectively. Also, the “Relative inhibitory activity, Danio rerio” value in test [2] is recorded as 12.2. In addition, the “Relative inhibitory activity, Bufo arenarum” value in test [3] is given as 3.9. Moreover, the “Relative inhibitory activity, Bos taurus” value in test [4] is listed as 9.0.
With `CO[C@H]1[C@H](O[C@H]2[C@H](O)[C@@H](O)C(O)O[C@@H]2CO)O[C@H](CO)[C@H](O)[C@@H]1O` (stereo partly drawn) [MeO-2Galβ1,4Glc], in the test with Msgal1-L1, the “Relative inhibitory activity, Morone saxatilis” value stood at 3.33. In addition, the “Relative inhibitory activity, Danio rerio” value in test [2] is on record as 2.9. For the same compound, the “Relative inhibitory activity, Bufo arenarum” value in test [3] is recorded as 2.5. For the same compound, the “Relative inhibitory activity, Bos taurus” value in test [4] is 4.08.
On to `OC[C@H]1O[C@@H](O[C@H]2[C@H](O)[C@H](O)C(O)O[C@@H]2CO)[C@H](O)[C@@H](O)[C@H]1O` (stereo partly drawn) [Galβ1,4Man], for which, in the test on Msgal1-L1, the “Relative inhibitory activity, Morone saxatilis” value stood at 1.74. Moreover, in test [2], the “Relative inhibitory activity, Danio rerio” value is given as 1.5. Moreover, the “Relative inhibitory activity, Bufo arenarum” value in test [3] was 2.5. Moreover, the “Relative inhibitory activity, Bos taurus” value in test [4] was 2.34.
As for `CO[C@H]1O[C@H](CO)[C@H](O)[C@H](O)[C@H]1O` [Galα-OMe], the “Relative inhibitory activity, Morone saxatilis” value in the test on Msgal1-L1 came to 0.027. The “Relative inhibitory activity, Danio rerio” value in test [2] is listed as 0.006. For the same compound, in test [3], the “Relative inhibitory activity, Bufo arenarum” value is on record as 0.03. The “Relative inhibitory activity, Bos taurus” value in test [4] is 0.01.
On to Fucα1,2Galβ1,4Glc, for which the “Relative inhibitory activity, Morone saxatilis” value in the test with Msgal1-L1 came out at 0.33. In addition, the “Relative inhibitory activity, Danio rerio” value in test [2] is reported as 0.35. Moreover, in test [3], the “Relative inhibitory activity, Bufo arenarum” value is reported as 0.17. Moreover, the “Relative inhibitory activity, Bos taurus” value in test [4] was 0.36.
